Assay results from publication PMC6407917, “Identification of GSK3186899/DDD853651 as a Preclinical Development Candidate for the Treatment of Visceral Leishmaniasis” (Journal of Medicinal Chemistry, 2018).

Columns and labels:
Assay in all cases: biochemical
Parameters in all cases: species or system HEK293/K-562/placenta mixed human extract; Kinobeads chemoproteomic competition binding, quantified by TMT LC-MS/MS, dose response up to 20 uM
[1] = target: CAMK2D (Homo sapiens, UniProt Q13557)
[2] = target: CAMKK2 (Homo sapiens, UniProt Q96RR4)
[3] = target: CHEK1 (Homo sapiens, UniProt O14757)
[4] = target: FN3K (Homo sapiens, UniProt Q9H479)
[5] = target: FN3KRP (Homo sapiens, UniProt Q9HA64)
[6] = target: LIMK1 (Homo sapiens, UniProt P53667)
[7] = target: LYN (Homo sapiens, UniProt P07948)
[8] = target: MAPK1 (Homo sapiens, UniProt P28482)
[9] = target: MAPK14 (Homo sapiens, UniProt Q16539)
[10] = target: MAST3 (Homo sapiens, UniProt O60307)
[11] = target: NEK6 (Homo sapiens, UniProt Q9HC98)
[12] = target: PIK3R4 (Homo sapiens, UniProt Q99570)
[13] = target: PIM1 (Homo sapiens, UniProt P11309)
[14] = target: RPS6KA1 (Homo sapiens, UniProt Q15418)
[15] = target: SIK2 (Homo sapiens, UniProt Q9H0K1)
[16] = target: STK17B (Homo sapiens, UniProt O94768)
[17] = target: STRADA (Homo sapiens, UniProt Q7RTN6)
[18] = target: TAOK2 (Homo sapiens, UniProt Q9UL54)
[19] = target: TBK1 (Homo sapiens, UniProt Q9UHD2)
[20] = target: TGFBR1 (Homo sapiens, UniProt P36897)
[21] = target: TNK2 (Homo sapiens, UniProt Q07912)

Measured: IC50

Sequence of CHEK1 (O14757 whole entry): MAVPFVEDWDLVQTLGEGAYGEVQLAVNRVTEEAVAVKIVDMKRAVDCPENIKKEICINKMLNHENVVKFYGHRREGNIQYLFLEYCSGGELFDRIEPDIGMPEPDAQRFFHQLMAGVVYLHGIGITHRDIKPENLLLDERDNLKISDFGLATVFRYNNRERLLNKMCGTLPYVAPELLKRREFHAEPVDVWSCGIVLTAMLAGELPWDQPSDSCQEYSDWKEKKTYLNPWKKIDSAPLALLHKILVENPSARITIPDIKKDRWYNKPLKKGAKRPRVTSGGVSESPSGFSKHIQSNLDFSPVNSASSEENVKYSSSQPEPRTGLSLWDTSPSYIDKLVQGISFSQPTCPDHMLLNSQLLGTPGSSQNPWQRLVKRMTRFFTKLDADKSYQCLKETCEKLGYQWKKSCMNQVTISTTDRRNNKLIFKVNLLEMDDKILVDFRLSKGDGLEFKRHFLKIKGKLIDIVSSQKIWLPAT
Sequence of NEK6 (Q9HC98 whole entry): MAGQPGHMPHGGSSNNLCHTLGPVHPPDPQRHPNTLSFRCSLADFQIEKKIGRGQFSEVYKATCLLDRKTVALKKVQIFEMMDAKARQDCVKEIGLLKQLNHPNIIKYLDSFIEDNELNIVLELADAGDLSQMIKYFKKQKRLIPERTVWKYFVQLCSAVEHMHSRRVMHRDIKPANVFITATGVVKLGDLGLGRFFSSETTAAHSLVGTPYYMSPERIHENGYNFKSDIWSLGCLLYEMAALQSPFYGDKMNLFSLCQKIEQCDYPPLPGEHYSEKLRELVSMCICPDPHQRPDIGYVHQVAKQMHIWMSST
Sequence of SIK2 (Q9H0K1 whole entry): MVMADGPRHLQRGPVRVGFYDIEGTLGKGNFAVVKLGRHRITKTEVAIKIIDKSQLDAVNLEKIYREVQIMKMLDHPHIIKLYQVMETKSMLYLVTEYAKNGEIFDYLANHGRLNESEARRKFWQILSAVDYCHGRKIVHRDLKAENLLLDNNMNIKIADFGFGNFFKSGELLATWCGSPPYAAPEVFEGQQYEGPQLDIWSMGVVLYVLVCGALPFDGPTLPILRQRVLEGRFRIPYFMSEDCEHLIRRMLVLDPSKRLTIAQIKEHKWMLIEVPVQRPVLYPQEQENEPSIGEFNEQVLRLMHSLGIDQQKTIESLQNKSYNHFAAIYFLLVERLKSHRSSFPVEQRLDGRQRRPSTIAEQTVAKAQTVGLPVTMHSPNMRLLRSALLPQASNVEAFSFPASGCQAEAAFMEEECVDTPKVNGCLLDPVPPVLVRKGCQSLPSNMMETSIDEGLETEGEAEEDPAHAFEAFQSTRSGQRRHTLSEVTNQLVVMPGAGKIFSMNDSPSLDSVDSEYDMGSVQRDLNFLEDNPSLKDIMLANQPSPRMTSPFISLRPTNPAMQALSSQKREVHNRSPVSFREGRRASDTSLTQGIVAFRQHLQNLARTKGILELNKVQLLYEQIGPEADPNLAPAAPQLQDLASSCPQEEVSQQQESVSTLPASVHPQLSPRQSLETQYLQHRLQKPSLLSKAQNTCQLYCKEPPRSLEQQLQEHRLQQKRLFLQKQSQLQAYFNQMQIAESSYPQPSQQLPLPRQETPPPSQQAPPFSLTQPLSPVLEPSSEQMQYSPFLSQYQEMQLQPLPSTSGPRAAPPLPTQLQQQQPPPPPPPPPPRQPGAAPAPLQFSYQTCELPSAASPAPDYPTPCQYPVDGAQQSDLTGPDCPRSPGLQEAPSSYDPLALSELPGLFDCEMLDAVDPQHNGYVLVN
Sequence of PIM1 (P11309 whole entry): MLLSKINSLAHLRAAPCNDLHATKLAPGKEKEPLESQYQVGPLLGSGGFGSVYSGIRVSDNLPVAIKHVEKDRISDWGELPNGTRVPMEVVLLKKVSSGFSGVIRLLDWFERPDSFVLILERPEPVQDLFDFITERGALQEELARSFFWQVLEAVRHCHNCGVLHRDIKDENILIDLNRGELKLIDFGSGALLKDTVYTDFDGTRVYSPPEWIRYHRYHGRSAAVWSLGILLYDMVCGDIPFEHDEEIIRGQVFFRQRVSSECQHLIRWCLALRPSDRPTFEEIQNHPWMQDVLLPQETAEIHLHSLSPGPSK
Sequence of RPS6KA1 (Q15418 whole entry): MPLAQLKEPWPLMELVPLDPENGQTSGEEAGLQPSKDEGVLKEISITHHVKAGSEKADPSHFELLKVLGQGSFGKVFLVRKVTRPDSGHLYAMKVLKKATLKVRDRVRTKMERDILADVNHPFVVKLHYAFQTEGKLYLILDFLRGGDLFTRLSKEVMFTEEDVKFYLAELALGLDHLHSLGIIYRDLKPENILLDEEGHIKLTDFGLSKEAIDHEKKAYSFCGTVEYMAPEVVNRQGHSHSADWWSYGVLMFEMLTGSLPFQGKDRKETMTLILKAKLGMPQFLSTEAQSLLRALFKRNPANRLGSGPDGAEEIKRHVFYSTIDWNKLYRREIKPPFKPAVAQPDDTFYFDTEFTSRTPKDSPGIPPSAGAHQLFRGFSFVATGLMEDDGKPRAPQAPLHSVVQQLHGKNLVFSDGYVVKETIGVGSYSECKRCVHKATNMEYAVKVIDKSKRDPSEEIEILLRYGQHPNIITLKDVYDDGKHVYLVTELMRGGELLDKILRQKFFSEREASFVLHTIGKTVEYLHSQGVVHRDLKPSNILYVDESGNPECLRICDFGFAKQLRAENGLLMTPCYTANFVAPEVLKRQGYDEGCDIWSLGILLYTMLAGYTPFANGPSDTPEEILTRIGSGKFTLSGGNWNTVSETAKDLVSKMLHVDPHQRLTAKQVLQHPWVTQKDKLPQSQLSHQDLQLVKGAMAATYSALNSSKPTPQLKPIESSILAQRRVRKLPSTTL
Sequence of TNK2 (Q07912 whole entry): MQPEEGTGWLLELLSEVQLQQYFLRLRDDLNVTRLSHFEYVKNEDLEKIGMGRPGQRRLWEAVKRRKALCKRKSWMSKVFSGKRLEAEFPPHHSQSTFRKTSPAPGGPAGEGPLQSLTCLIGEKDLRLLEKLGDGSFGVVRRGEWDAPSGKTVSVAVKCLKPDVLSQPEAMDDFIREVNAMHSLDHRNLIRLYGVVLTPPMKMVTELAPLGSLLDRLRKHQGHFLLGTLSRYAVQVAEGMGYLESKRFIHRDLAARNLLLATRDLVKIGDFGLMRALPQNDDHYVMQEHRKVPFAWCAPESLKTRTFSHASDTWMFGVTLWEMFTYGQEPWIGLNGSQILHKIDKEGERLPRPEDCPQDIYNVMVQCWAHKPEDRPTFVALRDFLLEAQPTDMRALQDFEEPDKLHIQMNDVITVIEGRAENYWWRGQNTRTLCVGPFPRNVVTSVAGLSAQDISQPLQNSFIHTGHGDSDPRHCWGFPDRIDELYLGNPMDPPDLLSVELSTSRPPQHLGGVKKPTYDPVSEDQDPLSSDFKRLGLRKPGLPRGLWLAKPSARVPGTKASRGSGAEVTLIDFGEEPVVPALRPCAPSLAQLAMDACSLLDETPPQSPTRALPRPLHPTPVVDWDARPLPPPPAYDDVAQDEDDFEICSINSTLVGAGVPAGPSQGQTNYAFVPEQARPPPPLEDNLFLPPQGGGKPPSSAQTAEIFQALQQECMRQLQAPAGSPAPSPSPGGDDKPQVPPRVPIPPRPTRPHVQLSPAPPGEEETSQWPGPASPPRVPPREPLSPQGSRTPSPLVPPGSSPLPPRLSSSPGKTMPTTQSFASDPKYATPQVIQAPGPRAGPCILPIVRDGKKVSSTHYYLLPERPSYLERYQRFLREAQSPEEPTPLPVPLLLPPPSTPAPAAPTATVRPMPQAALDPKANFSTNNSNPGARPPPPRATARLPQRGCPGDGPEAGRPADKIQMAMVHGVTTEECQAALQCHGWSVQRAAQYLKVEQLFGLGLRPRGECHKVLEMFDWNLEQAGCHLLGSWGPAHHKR
Sequence of MAPK1 (P28482 whole entry): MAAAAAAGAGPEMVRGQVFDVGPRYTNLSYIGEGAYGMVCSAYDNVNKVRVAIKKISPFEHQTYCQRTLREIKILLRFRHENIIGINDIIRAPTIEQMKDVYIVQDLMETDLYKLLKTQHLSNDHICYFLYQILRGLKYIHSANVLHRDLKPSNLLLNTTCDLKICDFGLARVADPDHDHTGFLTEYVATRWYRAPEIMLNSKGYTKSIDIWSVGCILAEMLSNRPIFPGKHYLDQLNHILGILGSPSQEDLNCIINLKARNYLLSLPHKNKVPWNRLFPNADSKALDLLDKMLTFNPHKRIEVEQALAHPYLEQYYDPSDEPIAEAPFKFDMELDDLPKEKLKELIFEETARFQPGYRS
Sequence of STRADA (Q7RTN6 whole entry): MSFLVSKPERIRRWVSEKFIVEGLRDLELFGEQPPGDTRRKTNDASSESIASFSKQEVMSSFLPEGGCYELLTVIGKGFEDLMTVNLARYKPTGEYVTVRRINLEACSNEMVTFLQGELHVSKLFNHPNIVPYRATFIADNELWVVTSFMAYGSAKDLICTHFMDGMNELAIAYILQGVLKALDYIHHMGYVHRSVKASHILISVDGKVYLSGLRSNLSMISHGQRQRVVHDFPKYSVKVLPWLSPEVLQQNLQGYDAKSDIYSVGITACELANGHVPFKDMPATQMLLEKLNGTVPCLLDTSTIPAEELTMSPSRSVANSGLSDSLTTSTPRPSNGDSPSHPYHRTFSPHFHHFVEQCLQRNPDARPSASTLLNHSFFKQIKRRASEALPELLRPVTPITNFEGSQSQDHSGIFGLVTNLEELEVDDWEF
Sequence of FN3K (Q9H479 whole entry): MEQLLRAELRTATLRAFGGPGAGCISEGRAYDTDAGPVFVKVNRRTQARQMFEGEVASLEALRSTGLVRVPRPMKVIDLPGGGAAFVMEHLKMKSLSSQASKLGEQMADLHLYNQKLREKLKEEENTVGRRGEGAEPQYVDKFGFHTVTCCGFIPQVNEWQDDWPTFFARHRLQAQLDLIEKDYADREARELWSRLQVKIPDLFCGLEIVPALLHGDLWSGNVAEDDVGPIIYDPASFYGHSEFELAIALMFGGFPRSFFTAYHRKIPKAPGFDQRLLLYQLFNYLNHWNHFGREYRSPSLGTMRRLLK

COc1nc(N[C@H]2CC[C@H](NS(=O)(=O)CC(C)C)CC2)nc2[nH]nc(N3CCOC[C@H]3C)c12 [compound 39, N-(trans-4-((4-Methoxy-3-((R)-3-methylmorpholino)-1H-pyrazolo[3,4-d]pyrimidin-6-yl)amino)cyclohexyl)-2-methylpropane-1-sulfonamide]
≥ 20 µM: all assays above
